{"source": "patent US6914045B2", "about": "“Glycopeptide antibiotics” (Wyeth Holdings Corporation, priority 2001, dated 2005)", "assay_in_all_cases": "in vitro antibacterial evaluation, MIC by broth dilution", "type_in_all_cases": "cell-based", "key": {"[1]": {"tested_on": "Enterococcus sp.", "method_in_brief": "(§1)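 Broth dilution per NCCLS M7-A2 in Mueller-Hinton II medium, inoculum 5×10^5 CFU/mL, antibiotic range 64-0.06 μg/mL. MIC taken as lowest concentration inhibiting growth; Gram-positive panel includes recent clinical isolates resistant to methicillin, penicillin and/or vancomycin.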"}, "[2]": {"tested_on": "Staphylococcus sp.", "method_in_brief": "as §1"}, "[3]": {"tested_on": "Streptococcus sp.", "method_in_brief": "as §1"}, "[4]": {"tested_on": "Escherichia coli", "method_in_brief": "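Broth dilution MIC per NCCLS M7-A2 in Mueller-Hinton II medium, inoculum 5×10^5 CFU/mL, antibiotic range 64-0.06 μg/mL. MIC taken as lowest concentration inhibiting growth.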"}}, "note": "Read-outs that look alike come from different tables or passages of the source.", "data": [{"smiles": "Cc1ccc(OC(=O)Nc2cc(CC3NC(=O)C(C(C)c4ccccc4)NC(=O)CNC(=O)C(CO)NC(=O)C(C(O)C4CNC(=N)N4C4OC(CO)C(O)C(O)C4O)NC(=O)C(C(O)C4CNC(=N)N4)NC3=O)ccc2O)cc1", "note": "(stereo not drawn) [Example 19, Cyclo[glycyl-β-methylphenylalanyl-3-[[(4-methylphenoxy)carbonyl]amino]tyrosyl-3-(2-iminoimidazolidin-4-yl)seryl-3-(3-hexopyranosyl-2-iminoimidazolidin-4-yl)serylseryl]]", "values": [{"measurement": "MIC Enterococcus faecalis (ATCC 29212)", "setting": "[1]; strain ATCC 29212, broth dilution, 18 hours at 35° C.", "value": ">128", "unit": "µg/mL"}, {"measurement": "MIC Enterococcus faecalis (GC 2242)", "setting": "[1]; strain GC 2242, broth dilution, 18 hours at 35° C.", "value": ">128", "unit": "µg/mL"}, {"measurement": "MIC Enterococcus faecium (GC 2243)", "setting": "[1]; strain GC 2243, broth dilution, 18 hours at 35° C.", "value": ">128", "unit": "µg/mL"}, {"measurement": "MIC Enterococcus faecalis (GC 2691)", "setting": "[1]; strain GC 2691, broth dilution, 18 hours at 35° C.", "value": ">128", "unit": "µg/mL"}, {"measurement": "MIC Enterococcus faecalis (GC 3059)", "setting": "[1]; strain GC 3059, broth dilution, 18 hours at 35° C.", "value": ">128", "unit": "µg/mL"}, {"measurement": "MIC Enterococcus faecalis (GC 4552)", "setting": "[1]; strain GC 4552, broth dilution, 18 hours at 35° C.", "value": ">128", "unit": "µg/mL"}, {"measurement": "MIC Enterococcus faecalis (GC 4553)", "setting": "[1]; strain GC 4553, broth dilution, 18 hours at 35° C.", "value": 128, "unit": "µg/mL"}, {"measurement": "MIC Enterococcus faecalis (GC 4554)", "setting": "[1]; strain GC 4554, broth dilution, 18 hours at 35° C.", "value": ">128", "unit": "µg/mL"}, {"measurement": "MIC Enterococcus faecium (GC 4556)", "setting": "[1]; strain GC 4556, broth dilution, 18 hours at 35° C.", "value": ">128", "unit": "µg/mL"}, {"measurement": "MIC Enterococcus faecium (GC 4557)", "setting": "[1]; strain GC 4557, broth dilution, 18 hours at 35° C.", "value": 128, "unit": "µg/mL"}, {"measurement": "MIC Enterococcus avium (GC 4558)", "setting": "[1]; strain GC 4558, broth dilution, 18 hours at 35° C.", "value": 128, "unit": "µg/mL"}, {"measurement": "MIC Enterococcus faecalis (GC 6189)", "setting": "[1]; strain GC 6189, broth dilution, 18 hours at 35° C.", "value": ">128", "unit": "µg/mL"}, {"measurement": "MIC Staphylococcus aureus (ATCC 29213)", "setting": "[2]; strain ATCC 29213, broth dilution, 18 hours at 35° C.", "value": ">128", "unit": "µg/mL"}, {"measurement": "MIC Staphylococcus aureus (GC 1131)", "setting": "[2]; strain GC 1131, broth dilution, 18 hours at 35° C.", "value": ">128", "unit": "µg/mL"}, {"measurement": "MIC Staphylococcus aureus (GC 3051)", "setting": "[2]; strain GC 3051, broth dilution, 18 hours at 35° C.", "value": ">128", "unit": "µg/mL"}, {"measurement": "MIC Staphylococcus aureus (GC 3053)", "setting": "[2]; strain GC 3053, broth dilution, 18 hours at 35° C.", "value": ">128", "unit": "µg/mL"}, {"measurement": "MIC Staphylococcus aureus (GC 4541)", "setting": "[2]; strain GC 4541, broth dilution, 18 hours at 35° C.", "value": ">128", "unit": "µg/mL"}, {"measurement": "MIC Staphylococcus aureus (GC 4542)", "setting": "[2]; strain GC 4542, broth dilution, 18 hours at 35° C.", "value": ">128", "unit": "µg/mL"}, {"measurement": "MIC Staphylococcus aureus-SMITH (GC 4543)", "setting": "[2]; strain GC 4543, broth dilution, 18 hours at 35° C.", "value": ">128", "unit": "µg/mL"}, {"measurement": "MIC Staphylococcus aureus (GC 4544)", "setting": "[2]; strain GC 4544, broth dilution, 18 hours at 35° C.", "value": ">128", "unit": "µg/mL"}, {"measurement": "MIC Staphylococcus aureus (GC 4545)", "setting": "[2]; strain GC 4545, broth dilution, 18 hours at 35° C.", "value": ">128", "unit": "µg/mL"}, {"measurement": "MIC Staphylococcus haemolyticus (GC 4546)", "setting": "[2]; strain GC 4546, broth dilution, 18 hours at 35° C.", "value": ">128", "unit": "µg/mL"}, {"measurement": "MIC Coagulase Negative Staphylococcus (GC 4547)", "setting": "[2]; strain GC 4547, broth dilution, 18 hours at 35° C.", "value": ">128", "unit": "µg/mL"}, {"measurement": "MIC Coagulase Negative Staphylococcus (GC 4548)", "setting": "[2]; strain GC 4548, broth dilution, 18 hours at 35° C.", "value": ">128", "unit": "µg/mL"}, {"measurement": "MIC Coagulase Negative Staphylococcus (GC 4549)", "setting": "[2]; strain GC 4549, broth dilution, 18 hours at 35° C.", "value": 128, "unit": "µg/mL"}, {"measurement": "MIC Coagulase Negative Staphylococcus (GC 4551)", "setting": "[2]; strain GC 4551, broth dilution, 18 hours at 35° C.", "value": ">128", "unit": "µg/mL"}, {"measurement": "MIC Coagulase Negative Staphylococcus (GC 6257)", "setting": "[2]; strain GC 6257, broth dilution, 18 hours at 35° C.", "value": ">128", "unit": "µg/mL"}, {"measurement": "MIC Streptococcus pneumoniae (ATCC 6301)", "setting": "[3]; strain ATCC 6301, broth dilution, 18 hours at 35° C.", "value": 128, "unit": "µg/mL"}, {"measurement": "MIC Streptococcus pneumoniae (GC 1894)", "setting": "[3]; strain GC 1894, broth dilution, 18 hours at 35° C.", "value": 64, "unit": "µg/mL"}, {"measurement": "MIC Streptococcus pyogenes (GC 4563)", "setting": "[3]; strain GC 4563, broth dilution, 18 hours at 35° C.", "value": ">128", "unit": "µg/mL"}, {"measurement": "MIC Streptococcus agalactiae (GC 4564)", "setting": "[3]; strain GC 4564, broth dilution, 18 hours at 35° C.", "value": ">128", "unit": "µg/mL"}, {"measurement": "MIC Streptococcus pneumoniae (GC 4565)", "setting": "[3]; strain GC 4565, broth dilution, 18 hours at 35° C.", "value": 128, "unit": "µg/mL"}, {"measurement": "MIC Escherichia coli (ATCC 25922)", "setting": "[4]; strain ATCC 25922, broth dilution, 18 hours at 35° C.", "value": 128, "unit": "µg/mL"}, {"measurement": "MIC Escherichia coli (GC 4559)", "setting": "[4]; strain GC 4559, broth dilution, 18 hours at 35° C.", "value": 128, "unit": "µg/mL"}, {"measurement": "MIC Escherichia coli (GC 4560)", "setting": "[4]; strain GC 4560, broth dilution, 18 hours at 35° C.", "value": 128, "unit": "µg/mL"}]}, {"smiles": "CC(C)=Cc1nc2cc(CC3NC(=O)C(C(C)c4ccccc4)NC(=O)CNC(=O)C(CO)NC(=O)C(C(O)C4CNC(=N)N4C4OC(CO)C(O)C(O)C4O)NC(=O)C(C(O)C4CNC(=N)N4)NC3=O)ccc2o1", "note": "(stereo not drawn) [Example 40, Cyclo[3-[2-(2-methylprop-1-en-1-yl)-1,3-benzoxazol-5-yl]alanyl-3-(2-iminoimidazolidin-4-yl)seryl-3-(3-hexopyranosyl-2-iminoimidazolidin-4-yl)serylserylglycyl-β-methylphenyl-alanyl]]", "values": [{"measurement": "MIC Enterococcus avium (GC 4558)", "setting": "[1]", "value": 64, "unit": "µg/mL"}, {"measurement": "MIC Enterococcus faecalis (ATCC 29212)", "setting": "[1]", "value": 128, "unit": "µg/mL"}, {"measurement": "MIC Enterococcus faecalis (GC 2242)", "setting": "[1]", "value": 128, "unit": "µg/mL"}, {"measurement": "MIC Enterococcus faecalis (GC 2691)", "setting": "[1]", "value": 128, "unit": "µg/mL"}, {"measurement": "MIC Enterococcus faecalis (GC 3059)", "setting": "[1]", "value": ">128", "unit": "µg/mL"}, {"measurement": "MIC Enterococcus faecalis (GC 4552)", "setting": "[1]", "value": ">128", "unit": "µg/mL"}, {"measurement": "MIC Enterococcus faecalis (GC 4553)", "setting": "[1]", "value": 64, "unit": "µg/mL"}, {"measurement": "MIC Enterococcus faecalis (GC 4554)", "setting": "[1]", "value": ">128", "unit": "µg/mL"}, {"measurement": "MIC Enterococcus faecalis (GC 6189)", "setting": "[1]", "value": 128, "unit": "µg/mL"}, {"measurement": "MIC Enterococcus faecium (GC 2243)", "setting": "[1]", "value": 64, "unit": "µg/mL"}, {"measurement": "MIC Enterococcus faecium (GC 4556)", "setting": "[1]", "value": 128, "unit": "µg/mL"}, {"measurement": "MIC Enterococcus faecium (GC 4557)", "setting": "[1]", "value": 16, "unit": "µg/mL"}, {"measurement": "MIC Coagulase Negative Staphylococcus (GC 4547)", "setting": "[2]", "value": 16, "unit": "µg/mL"}, {"measurement": "MIC Coagulase Negative Staphylococcus (GC 4548)", "setting": "[2]", "value": 32, "unit": "µg/mL"}, {"measurement": "MIC Coagulase Negative Staphylococcus (GC 4549)", "setting": "[2]", "value": 16, "unit": "µg/mL"}, {"measurement": "MIC Coagulase Negative Staphylococcus (GC 4551)", "setting": "[2]", "value": 32, "unit": "µg/mL"}, {"measurement": "MIC Coagulase Negative Staphylococcus (GC 6257)", "setting": "[2]", "value": 16, "unit": "µg/mL"}, {"measurement": "MIC Staphylococcus aureus (ATCC 29213)", "setting": "[2]", "value": 64, "unit": "µg/mL"}, {"measurement": "MIC Staphylococcus aureus (GC 1131)", "setting": "[2]", "value": 64, "unit": "µg/mL"}, {"measurement": "MIC Staphylococcus aureus (GC 3051)", "setting": "[2]", "value": 64, "unit": "µg/mL"}, {"measurement": "MIC Staphylococcus aureus (GC 3053)", "setting": "[2]", "value": 64, "unit": "µg/mL"}, {"measurement": "MIC Staphylococcus aureus (GC 4541)", "setting": "[2]", "value": 64, "unit": "µg/mL"}, {"measurement": "MIC Staphylococcus aureus (GC 4542)", "setting": "[2]", "value": 64, "unit": "µg/mL"}, {"measurement": "MIC Staphylococcus aureus (GC 4544)", "setting": "[2]", "value": 32, "unit": "µg/mL"}, {"measurement": "MIC Staphylococcus aureus (GC 4545)", "setting": "[2]", "value": 32, "unit": "µg/mL"}, {"measurement": "MIC Staphylococcus aureus-SMITH (GC 4543)", "setting": "[2]", "value": 64, "unit": "µg/mL"}, {"measurement": "MIC Staphylococcus haemolyticus (GC 4546)", "setting": "[2]", "value": 16, "unit": "µg/mL"}, {"measurement": "MIC Streptococcus agalactiae (GC 4564)", "setting": "[3]", "value": 64, "unit": "µg/mL"}, {"measurement": "MIC Streptococcus pneumoniae (ATCC 6301)", "setting": "[3]", "value": 64, "unit": "µg/mL"}, {"measurement": "MIC Streptococcus pneumoniae (GC 1894)", "setting": "[3]", "value": 32, "unit": "µg/mL"}, {"measurement": "MIC Streptococcus pneumoniae (GC 4565)", "setting": "[3]", "value": 128, "unit": "µg/mL"}, {"measurement": "MIC Streptococcus pyogenes (GC 4563)", "setting": "[3]", "value": 32, "unit": "µg/mL"}, {"measurement": "MIC Escherichia coli (ATCC 25922)", "setting": "[4]", "value": 32, "unit": "µg/mL"}, {"measurement": "MIC Escherichia coli (GC 4559)", "setting": "[4]", "value": 32, "unit": "µg/mL"}, {"measurement": "MIC Escherichia coli (GC 4560)", "setting": "[4]", "value": 16, "unit": "µg/mL"}]}]}
